Results on nine compounds are retold here after patent publication US11440923B2, “Substituted macrocyclic indole derivatives” (Bayer Aktiengesellschaft, priority 2017, dated 2022).

Counter-ions that a name gives are not always drawn. Like-named read-outs stand apart in the source and are kept apart here.

Assay [1] concerns the target T1, MCL-1 (Homo sapiens (Human), UniProt Q07820, K194A/K197A/R201A). Description: Protein-protein interaction assay MCL-1/Noxa BH3 peptide (MCL-1 assay, TR-FRET). Format: binding. The conditions noted are these: MCL-1 Assay IC50 (median). The method, boiled down: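 IC50 came from a 4-parameter regression of the 665/620 nm emission ratio, normalized to DMSO controls. The mix held 1 nM MBP-fused MCL-1 (residues 173-321), a biotin-Noxa BH3 tracer and compound in Tris buffer pH 7, incubated 10 min plus 1 h at 22° C., then overnight at 4° C.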
On the technique in general: Time-resolved FRET reads energy transfer from a long-lived donor to a nearby acceptor.
Target sequence in this assay (Q07820 whole entry, looked up, stated change not applied, the tested form may be a part): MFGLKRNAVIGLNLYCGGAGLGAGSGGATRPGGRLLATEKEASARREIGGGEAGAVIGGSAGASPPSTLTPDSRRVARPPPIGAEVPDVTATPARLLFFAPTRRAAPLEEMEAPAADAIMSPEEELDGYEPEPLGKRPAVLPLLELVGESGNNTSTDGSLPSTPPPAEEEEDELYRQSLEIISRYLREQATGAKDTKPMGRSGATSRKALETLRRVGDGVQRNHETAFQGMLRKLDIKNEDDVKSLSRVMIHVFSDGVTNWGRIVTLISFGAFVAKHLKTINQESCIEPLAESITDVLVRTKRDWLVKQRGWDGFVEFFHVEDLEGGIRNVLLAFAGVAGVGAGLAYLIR

The subject of assay [2] is MV-4-11 cells. Description: Antiproliferation assay MV-4-11 (Assay 7). Type of assay: cell-based. In outline: (§1)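 Anti-proliferative effect was measured by CellTiter-Glo ATP luminescence after 72 h compound exposure at 37° C, following overnight plating. IC50s were derived using a parallel time-zero plate and DMSO-treated controls as reference points.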
Assay [3] has as its system SNU-389 cells. Description: Antiproliferation assay SNU-389 (Assay 7). Format: cell-based. Conditions: 72 h, read-out: Antiproli SNU-389 IC50. In outline: as §1
Assay [4] concerns PA-1 cells. The assay can be described thus: Antiproliferation assay PA-1 (Assay 7). Format: cell-based. The conditions noted are these: Homo sapiens, read-out: Antiproli PA-1 IC50 median. As for the experimental part: (§2) Assessment of the Anti-Proliferative Effect of Compounds in Different Cell Lines
(§3) The impact of compounds on the proliferation of different cell lines was assessed using the CellTiter-Glo® Luminescent Cell Viability reagent from Promega (G7573).
(§4) In parallel, cells were plated in a reference (day 0) plate for time zero determination. Cells were incubated in a humidified incubator at 37° C. overnight.
(§5) Rim wells were excluded. The cells were incubated for 72 h hours in a humidified incubator at 37° C. The day 0 plate was measured by adding 30 μL/well of CTG solution (CellTiter-Glo® Luminescent Cell Viability reagent, Promega G7573) to time zero wells in the reference plate followed by a 10 minutes incubation and luminescence reading at 0.1 ms. using the PHERAstar FS microplate reader (BMG Labtech).
(§6) After 72 h incubation, the treated plates were measured in the same way as the day 0 plate mentioned above. The Bella DRC Master Sheet was used to calculate IC50s, with CI=day 0 values and C0=DMSO control values.

Assay [5] relates to A-431 cells. Description: Antiproliferation assay A-431 (Assay 7). The conditions noted are these: Homo sapiens, read-out: Antiproli A-431 IC50 median. Format: cell-based. As for the experimental part:
as §2, §3, §4, §5, §6

For assay [6], the system named is DMS-114 cells. Description: Antiproliferation assay DMS-114 (Assay 7). Format: cell-based. Conditions: Homo sapiens, read-out: Antiproli DM-S114 IC50 median. In outline:
as §1

Assay [7] concerns SNU-16 cells. Description: Antiproliferation assay SNU-16 (Assay 7). The conditions noted are these: Homo sapiens, read-out: Antiproli SNU-16 IC50 median. Format: cell-based. On the procedure: as §2, §3, §4, §5, §6
In assay [8] the target is T1, MCL-1. Description: Protein-compound interaction assay (SPR assay, Assay 9). Type of assay: binding. The conditions noted are these: for Kd: KD (geometric mean); for koff: read-out: koff (geometric mean), SPR, 25° C.; for kon: read-out: kon (geometric mean), SPR, 25° C. The source says:
Assay 9 Protein-Compound Interaction Assay (SPR Assay)
The ability of the compounds described in this invention to bind to MCL-1 may be determined using surface plasmon resonance (SPR). This allows for the quantification of binding in terms of the equilibrium dissociation constant (KD [M]), as well as association and dissociation rate constants (kon [1/Ms] and koff [1/s], respectively). The measurements may be performed using Biacore® T200 or Biacore® S200 instruments (GE Healthcare).
Briefly, carboxymethylated dextran biosensor chips (Series S Sensor Chip CMS, GE Healthcare) were activated with 1-ethyl-3-(3-dimethylaminopropyl)-carbodiimide hydrochloride (EDC) and N-hydroxysuccinimide (NHS) according to the supplier's instructions. MBP-MCL-1 was diluted in 1×PBS-P+ (GE Healthcare) and injected on the activated chip surface. Subsequently, a solution of 1 M ethanolamine-HCl (GE Healthcare) was injected to block unreacted groups, resulting in approximately 400-2500 response units (RU) of immobilized protein. A reference surface was generated by treatment with NHS-EDC and ethanolamine-HCl. […] Compounds were injected for 60 s followed by a dissociation time of up to 1000 s.
The double-referenced sensorgrams were fit to a simple reversible Langmuir 1:1 reaction mechanism as implemented in the Biacore® T200 and S200 evaluation software (T200 evaluation software version 2.0 and S200 evaluation software version 1.0, GE Healthcare).
Target sequence in this assay (Q07820 whole entry K194A/K197A/R201A, looked up, the tested form may be a part): as the sequence (Q07820 whole entry, looked up, stated change not applied, the tested form may be a part) above, with K194A, K197A, R201A counted along it
(In general: Surface plasmon resonance follows binding to a sensor surface in real time, without labels.)

Setting [9] is: Homo sapiens, MV4-11, 72 h, CellTiter-Glo, read-out: Antiproli MV-4-11 IC50 median.
[10] abbreviates: DMS-114 cells, 72 h, CellTiter-Glo.
[11] abbreviates: 72 h, CellTiter-Glo; read-out: Antiproli MV-4-11 IC50 median.

As to `Cc1c2c(nn1C)C(CCN1CCOCC1)OCCCCn1c(C(=O)O)c(CCCOc3cccc4cc(F)ccc34)c3ccc(Cl)c-2c31` (racemic) [Example 16, (rac)-4-chloro-7-{3-[(6-fluoronaphthalen-1-yl)oxy]propyl}-2,3-dimethyl-15-[2-(morpholin-4-yl)ethyl]-2,10,11,12,13,15-hexahydropyrazolo[4′,3′:9,10][1,6]oxazacycloundecino[8,7,6-hi]indole-8-carboxylic Acid], the half-inhibitory concentration (IC50) in assay [1] was determined as 2 nM; in assay [2] (setting [9]), 34.6 nM; in assay [3] (CellTiter-Glo) it was 118 nM.

For `Cc1c2c(nn1C)C(CCN1CCOCC1)OCCCCn1c(C(=O)O)c(CCCOc3cccc4cc(F)ccc34)c3ccc(F)c-2c31` (racemic) [Example 19, (rac)-4-fluoro-7-{3-[(6-fluoronaphthalen-1-yl)oxy]propyl}-2,3-dimethyl-15-[2-(morpholin-4-yl)ethyl]-2,10,11,12,13,15-hexahydropyrazolo[4′,3′:9,10][1,6]oxazacycloundecino[8,7,6-hi]indole-8-carboxylic Acid], the concentration for half-maximal inhibition (IC50) stood at 1.6 nM in assay [1] and 140 nM in assay [2] (setting [9]).

Consider `CCc1c2c(nn1C)C(CCN1CC(F)(F)C1)OCCCCn1c(C(=O)O)c(CCCOc3cccc4cc(F)ccc34)c3ccc(Cl)c-2c31` (single isomer, unassigned; (+)) [Example 78, (+)-4-chloro-15-[2-(3,3-difluoroazetidin-1-yl)ethyl]-3-ethyl-7-{3-[(6-fluoronaphthalen-1-yl)oxy]propyl}-2-methyl-2,10,11,12,13,15-hexahydropyrazolo[4′,3′:9,10][1,6]oxazacycloundecino[8,7,6-hi]indole-8-carboxylic Acid—N-ethylethanamine Salt], for which the 50% inhibitory concentration (IC50) in assay [4] (PA-1, 72 h, CellTiter-Glo) turned out to be 127 nM; in assay [5] (A-431, 72 h, CellTiter-Glo), 126 nM; in assay [6] (setting [10]), 88.5 nM; in assay [7] (SNU-16, 72 h, CellTiter-Glo), 130 nM; in assay [3] (CellTiter-Glo), 151 nM. In assay [8] (SPR, 25° C.), this compound gave a Kd of 0.33 nM. For the same compound, in assay [8], the koff came out at 0.0012 s⁻¹. Besides, in assay [8], the kon came out at 3.5e+06 M⁻¹ s⁻¹.

Turning to `Cc1c2c(nn1C)C(CCN1CCOCC1)OCCCCn1c(C(=O)O)c(CCCOc3cccc4ccccc34)c3ccc(Cl)c-2c31` (single isomer, unassigned; enantiomer 1) [Example 14, 4-chloro-2,3-dimethyl-15-[2-(morpholin-4-yl)ethyl]-7-{3-[(naphthalen-1-yl)oxy]propyl}-2,10,11,12,13,15-hexahydropyrazolo[4′,3′:9,10][1,6]oxazacycloundecino[8,7,6-hi]indole-8-carboxylic Acid (Enantiomer 1)], the IC50 in assay [1] came out at 0.53 nM; in assay [6] (setting [10]) it was 150 nM; in assay [2] (setting [11]), 37.6 nM; in assay [3] (CellTiter-Glo), 183 nM. The compound further yielded a Kd in assay [8] (SPR, 25° C.) of 1.3 nM. The koff in assay [8] was determined as 0.031 s⁻¹. In addition, in assay [8], the kon was 2.3e+07 M⁻¹ s⁻¹.

`Cc1c2c(nn1C)C(CCN1CCOCC1)OCCCCn1c(C(=O)O)c(CCCOc3cccc4cc(F)ccc34)c3ccc(F)c-2c31` (single isomer, unassigned; enantiomer 1) [Example 20, 4-fluoro-7-{3-[(6-fluoronaphthalen-1-yl)oxy]propyl}-2,3-dimethyl-15-[2-(morpholin-4-yl)ethyl]-2,10,11,12,13,15-hexahydropyrazolo[4′,3′:9,10][1,6]oxazacycloundecino[8,7,6-hi]indole-8-carboxylic Acid—N-ethylethanamine (Enantiomer 1)]: the IC50 in assay [4] (PA-1, 72 h) is 304 nM; in assay [5] (A-431, 72 h), 462 nM; in assay [6] (DMS-114, 72 h), 222 nM; in assay [7] (SNU-16, 72 h) it was 397 nM; in assay [3], 437 nM. This compound also gave a dissociation constant Kd in assay [8] (SPR, 25° C.) of 0.56 nM. Also, the off-rate (koff) in assay [8] amounted to 0.018 s⁻¹. Besides, in assay [8], the on-rate (kon) stood at 3.2e+07 M⁻¹ s⁻¹.

`CCc1c2c(nn1C)C(CCC1CCOCC1)OCCCCn1c(C(=O)O)c(CCCOc3cccc4cc(F)ccc34)c3ccc(Cl)c-2c31` (single isomer, unassigned; enantiomer 1) [Example 63, (+)-4-chloro-3-ethyl-7-{3-[(6-fluoronaphthalen-1-yl)oxy]propyl}-2-methyl-15-[2-(oxan-4-yl)ethyl]-2,10,11,12,13,15-hexahydropyrazolo[4′,3′:9,10][1,6]oxazacycloundecino[8,7,6-hi]indole-8-carboxylic Acid—N-ethylethanamine Salt (Enantiomer 1)]: the IC50 in assay [4] (PA-1, 72 h) was determined as 204 nM; in assay [5] (A-431, 72 h) it was 272 nM; in assay [6] (DMS-114, 72 h), 156 nM; in assay [7] (SNU-16, 72 h) it was 276 nM; in assay [3] it was 183 nM. In assay [8] (SPR, 25° C.), this compound showed a dissociation constant Kd of 1.4 nM. For the same compound, in assay [8], the off-rate (koff) was found to be 0.0016 s⁻¹. The kon in assay [8] worked out at 1.1e+06 M⁻¹ s⁻¹.

For `CCc1c2c(nn1C)C(CCC(C)(C)O)OCCCCn1c(C(=O)O)c(CCCOc3cccc4cc(F)ccc34)c3ccc(Cl)c-2c31` (single isomer, unassigned; enantiomer 1) [Example 75, (+)-4-chloro-3-ethyl-7-{3-[(6-fluoronaphthalen-1-yl)oxy]propyl}-15-(3-hydroxy-3-methylbutyl)-2-methyl-2,10,11,12,13,15-hexahydropyrazolo[4′,3′:9,10][1,6]oxazacycloundecino[8,7,6-hi]indole-8-carboxylic Acid—N-ethylethanamine Salt (Enantiomer 1)], the IC50 in assay [4] (PA-1, 72 h, CellTiter-Glo) was 118 nM; in assay [5] (A-431, 72 h, CellTiter-Glo), 135 nM; in assay [6] (setting [10]), 77.4 nM; in assay [7] (SNU-16, 72 h, CellTiter-Glo), 152 nM; in assay [3] (CellTiter-Glo), 133 nM. The same compound displayed a dissociation constant (Kd) in assay [8] (SPR, 25° C.) of 0.24 nM. Besides, the off-rate (koff) in assay [8] amounted to 0.0022 s⁻¹. Besides, the kon in assay [8] was found to be 9e+06 M⁻¹ s⁻¹.

Take `CCc1c2c(nn1C)C(CCN1CCOCC1)OCCCCn1c(C(=O)O)c(CCCOc3cccc4ccccc34)c3ccc(F)c-2c31` (single isomer, unassigned; enantiomer 2) [Example 12, 3-ethyl-4-fluoro-2-methyl-15-[2-(morpholin-4-yl)ethyl]-7-{3-[(naphthalen-1-yl)oxy]propyl}-2,10,11,12,13,15-hexahydropyrazolo[4′,3′:9,10][1,6]oxazacycloundecino[8,7,6-hi]indole-8-carboxylic Acid—N-ethylethanamine Salt (Enantiomer 2)]: the IC50 in assay [2] (read-out: Antiproli MV-4-11 IC50 median; 72 h, CellTiter-Glo) was determined as 14400 nM. In addition, in assay [8] (SPR, 25° C.), the Kd came to 22 nM, the “koff (geometric mean)” value is given as 3.4 E−3 1/s and the “kon (geometric mean)” value is listed as 1.5 E5 1/M 1/s.

On to `Cc1c2c(nn1C)C(CCN1CCOCC1)OCCCCn1c(C(=O)O)c(CCCOc3cccc4ccccc34)c3ccc(Cl)c-2c31` (single isomer, unassigned; enantiomer 2) [Example 15, 4-chloro-2,3-dimethyl-15-[2-(morpholin-4-yl)ethyl]-7-{3-[(naphthalen-1-yl)oxy]propyl}-2,10,11,12,13,15-hexahydropyrazolo[4′,3′:9,10][1,6]oxazacycloundecino[8,7,6-hi]indole-8-carboxylic Acid (Enantiomer 2)], for which the IC50 in assay [1] amounted to 65 nM; in assay [2] (setting [11]) it was 7840 nM.

The IC50 is the concentration at which inhibition is half-maximal. By Kd is commonly meant the constant that tells how readily two partners part at equilibrium. Broadly, the koff is a measure of how fast the partners let go of each other. A word on the kon: it is the rate constant with which the complex forms.
